Experimental data reported in patent EP1530968A1, “Galangin components for the maintenance of bone health and/or treatment, alleviaton and/or prevention of bone disorder” (N.V. Nutricia, priority 2003, dated 2005).
Marks after values point to notes of the source that are not given here.

Key:
[1] = Body weight, fat percentage, food and water intake and uterus weight in SAMP6 mice; format: in vivo
Source text: (§1) Senescence accelerated mice prone for osteoporosis (SAMP6) and senescence accelerated resistant mice (SAMR) were obtained from Kyoto University, Kyoto, Japan. Mice were bred and kept under specific pathogen free conditions at the Center for small experimental animals in Wageningen. Procedures were approved by the external independent ethical committee for animal care and use (Zeist, The Netherlands). Female SAMP6 mice were randomized on the basis of body weight at the age 20 weeks and divided in 5 groups. […] The galangin was obtained from ICC, Sommerville, NJ, USA. The mice were treated from the age of 22 weeks to the age of 32 weeks. Animals were housed in pairs at 21°C with a 12-hour light/dark cycle in a room without male mice. Until the age of 22 weeks, animals were fed a complete rodent diet, free of flavonoids and isoflavones (RMH-B, Hope Farms, Woerden, The Netherlands). From 22 to 32 weeks of age, animals were fed diets composed according to the RDA of mice (Nutrient requirements of mice, National Academic press, Wahington, USA,1995) and demineralized water. Composition of all diets was identical, except for their galangin contents. All diets and water were supplied ad libitum. Food and water intake and body weight (BW) was registered weekly. Animals were checked daily for abnormal behavior and appearance. […] Implants were replaced after 6 weeks.
(§2) At the age of 22, 25, 28 and 32 weeks, bone mineral density (BMD) and body composition was determined with the aid of Dual energy X-ray absorptiometry (DXA) (Piximus, Lunar Corp, Madison, WI, USA) using the total body mode. Mice were anaesthetized with halothane and front and hind legs were extended. Bone mineral density of the lumbar spine (BMDLS) and the femur (BMDF) were determined within pre-defined regions of interest. Total body fat percentage was determined using the total body mode.

SAMP6 mice = assay: Bone mineral density by DXA in senescence accelerated mice prone for osteoporosis (SAMP6); format: in vivo; conditions: for BMD-LS change ( BMDLS) after 10 weeks of treatment / Bone mineral density of the lumbar spine (BMD-LS): female SAMP6 mice, E subcutaneous implant; for BMD-LS change ( BMDLS) after 10 weeks of treatment: age 22 to 32 weeks
Source text: as §1, §2

estrogen receptor = assay: ERE-Luciferase reporter assay in transiently transfected KS483 cells; format: cell-based, mouse; conditions: 48h
Description: (§3) Mouse pre-osteoblastic cell line KS483 was maintained in phenol red-free α-MEM containing 10% non-charcoal-treated FBS and penicillin/streptomycin. Cells were seeded in 24-well plates at a density of 1.6x10^4 cells/well, and cultured in phenol red-free α-MEM supplemented with penicillin/streptomycin and 10% charcoal-treated FBS. After 24 hours, cells were transiently transfected with 0.25 µg luciferase reporter (see below) using a lipid-based FuGENE 6 transfection reagent according to the manufacturer's recommendations (Roche, Almere, Netherlands). Cells were transfected with luciferase reporter, i.e. either estrogen-receptor-responsive element (ERE-Luciferase) or BMP-receptor-responsive element (BRE-Luciferas), hereinafter jointly referred to as luciferase reporter. Transfection efficiency was measured by co-transfection of 25 ng of SV40-Renilla control vector.. The transfection medium was changed after 18 hours into new α-MEM, containing penicillin/streptomycin and 10% charcoal-treated FBS. […] After 48h, cells were washed twice with PBS and frozen at -20°C. Luciferase activity was determined by measuring bioluminescence. Luciferase activity was expressed as fold induction ± SEM, which was corrected for transfection efficiency using sv40-renilla luciferase activity. The measured luciferase activity is indicative for the extent of stimulation of the estrogen receptor or BMP receptor by the test component. Subsequently the ratio ERE stimulation/BRE stimulation (ERE/BRE ratio) was determined, which is indicative for the estrogenic effects of the test component (Table 3).

[2] = tested on: KS483 (mouse pre-osteoblastic cell line); assay: Calcium deposition in KS483 cells (cresolphthalein complexon method); format: cell-based; conditions: for Fold increase of calcium (mean ± SEM): 18 days, compared to control levels
Description: (§4) KS483 (mouse pre-osteoblastic cell line, Leids Universitair […] Centrum, Leiden, The Netherlands) was maintained in phenol red-free alpha-minimum essential medium (α-MEM) containing 10% non-charcoal-treated fetal bovine serum (FBS) and penicillin/streptomycin. Cells were seeded in 12-well plates at a density of 4.5x10^4 cells/well, and cultured in phenol red-free α-MEM supplemented with penicillin/streptomycin and 10% charcoal-treated FBS. Cells were exposed to vehicle (0.01 wt.% DMSO) , β-estradiol as a positive control (10^-8 M and 10^-9 M in 0.01 wt.% DMSO) or galangin (10^-5 M, 10^-6 M and 10^-7 M in 0.01 wt.% DMSO) for 18 days. From day 4 ascorbic acid (50μg/ml), and from day 11 β-glycerolphosphate (5mM) were added to the culture medium. Every 3-4 days the medium was changed. At day 18, cells were washed twice with ice-cold phosphate buffered saline (PBS), frozen immediately, and stored at -20°C for further use. The cells were lysed in 400μl SSC (15 mM sodium citrate and 150 mM sodium chloride) with 0.01% sodium dodecyl sulfate (SDS). Alkaline phosphatase (ALP) activity was determined kinetically in 25μl aliquots by colorimetric determination of the produced p-nitrophenol at 405 nm, using 6 mmol/L p-nitrophenylphosphate as a substrate at a 37°C and pH 10.5. To correct the ALP activity determination for cell quantity, the DNA content was measured in 100μl aliquots, using Hoechst 33258 and calibrated against a DNA standard (0.5-10μg/mL salmon sperm DNA). Fluorescence was measured at a wavelength of 355-460 nm. Calcium deposition (see Table 2) was determined using the cresolphthalein complexon method according to Henri et al, 1974 (Clinical Biochemistry. Principles and Techniques. Harper and Row, New York, USA. All chemicals were obtained from Sigma-Aldrich (Zwijndrecht, The Netherlands). TABLE 1

[3] = tested on: KS483 (mouse pre-osteoblastic cell line); assay: Alkaline phosphatase (ALP) activity corrected for DNA in KS483 cells after 18 days exposure; format: cell-based; conditions: for ALP activity (mean ± SEM): 18 days, corrected for DNA, compared to control levels
Description: as §4

[4] = tested on: estrogen receptor (ERE) and BMP receptor (BRE); assay: Ratio ERE stimulation/BRE stimulation (ERE/BRE ratio) in KS483 cells; format: cell-based, mouse; conditions: for ERE/BRE: ratio ERE stimulation/BRE stimulation
Description: as §3

BMP receptor = assay: BRE-Luciferase reporter assay in transiently transfected KS483 cells; format: cell-based, mouse; conditions: 48h
Description: as §3

[5] = age 22 weeks (before start of the intervention), galangin 0.4 mg per 100 g feed
[6] = age 25 weeks, treated from 22 weeks, galangin 0.4 mg per 100 g feed
[7] = age 28 weeks, treated from 22 weeks, galangin 0.4 mg per 100 g feed
[8] = age 32 weeks, treated from 22 weeks, galangin 0.4 mg per 100 g feed
[9] = compared with control group, SAMP6 mice, galangin throughout the study, E from 25 weeks of age onwards
[10] = from 25 weeks of age onwards, subcutaneous implant, intact SAMP6-mice

Compound | BMD-LS change ( BMDLS) after 10 weeks of treatment (SAMP6 mice; galangin 0.4 mg per 100 g feed) | Bone mineral density of the lumbar spine (BMD-LS) (SAMP6 mice; [5]) | Bone mineral density of the lumbar spine (BMD-LS) (SAMP6 mice; [6]) | Bone mineral density of the lumbar spine (BMD-LS) (SAMP6 mice; [7]) | Bone mineral density of the lumbar spine (BMD-LS) (SAMP6 mice; [8]) | ERE (estrogen receptor; 10^-5M) | ERE (estrogen receptor; 10^-6M) | ERE (estrogen receptor; 10^-7M) | ERE/BRE ([4]; 10^-5M) | ERE/BRE ([4]; 10^-6M) | ERE/BRE ([4]; 10^-7M) | BRE (BMP receptor; 10^-5M) | BRE (BMP receptor; 10^-6M) | BRE (BMP receptor; 10^-7M) | also measured
O=c1c(O)c(-c2ccccc2)oc2cc(O)cc(O)c12 [Gal, 3,5,7-trihydroxyflavone] | -14.1 ^a | 0.0691 g/cm^2 | 0.0658 g/cm^2 | 0.0621 g/cm^2 | 0.0601 ^a g/cm^2 | 3.8 fold induction | 1.0 fold induction | 0.9 fold induction | 2.0 | 1.2 | 1.1 | 2.0 fold induction | 0.9 fold induction | 0.9 fold induction | fat percentage ([1]; mouse, in vivo): No statistical differences; food and water intake ([1]; mouse, in vivo): No statistical differences; loss of BMD-LS during the 10-week intervention period compared with controls (SAMP6 mice; 0.04 mg galangin/100 g food (so in the source), SAMP6 mice): significantly lower; % inhibition compared to SAMPC (SAMP6 mice; BMD-LS change after 10 weeks of treatment, galangin 0.4 mg per 100 g feed, SAMP6 mice): 40%; BMD-LS compared with controls (SAMP6 mice; at 32 weeks, 0.4 mg galangin/100 g feed, SAMP6 mice): significantly higher; Fold increase of calcium (mean ± SEM) ([2]; 10^-5M): 2.3 ± 0.160^a fold induction; Fold increase of calcium (mean ± SEM) ([2]; 10^-6M): 1.2 ± 0.132 fold induction; Fold increase of calcium (mean ± SEM) ([2]; 10^-7M): 1.3 ± 0.038 fold induction; Calcium deposition ([2]; after treatment, result in words): significantly increased; ALP activity (mean ± SEM) ([3]; 10^-5M): 3.7 ± 0.152^a fold induction; ALP activity (mean ± SEM) ([3]; 10^-6M): 1.4 ± 0.055^a fold induction; ALP activity (mean ± SEM) ([3]; 10^-7M): 1.1 ± 0.071 fold induction; ALP activity ([3]; result in words): significantly increased; ratio ERE/BRE relative to kaempherol and quercitin ([4]; galangin ratio as share of the ratio of kaempherol and quercitin): less than 50%; ERE/BRE ratio ([4]; result in words, galangin as compared to kaempherol and quercetin): low
O=c1c(O)c(-c2ccc(O)cc2)oc2cc(O)cc(O)c12 [K, kaemferol] |  |  |  |  |  |  |  |  |  |  |  | 2.4 fold induction | 1.4 fold induction | 1.1 fold induction | 
O=c1c(O)c(-c2ccc(O)c(O)c2)oc2cc(O)cc(O)c12 [Q, quercetin] |  |  |  |  |  | 7.9 fold induction | 1.5 fold induction | 1.4 fold induction | 5.0 | 1.6 | 1.6 | 1.6 fold induction | 1.0 fold induction | 0.9 fold induction | 
C[C@]12CC[C@@H]3c4ccc(O)cc4CC[C@H]3[C@@H]1CC[C@@H]2O [β-E, 17 β-estradiol] | +23.4 ^a | 0.0700 g/cm^2 | 0.0774 g/cm^2 | 0.08315 g/cm^2 | 0.0868 ^a g/cm^2 |  |  |  |  |  |  |  |  |  | Uterus weight ([1]; at 32 weeks of age, compared with control group, SAMP6 mice): significantly higher; body weight [1, 9]: significantly lower; fat percentage [1, 9]: significantly lower; food and water intake [1, 9]: significantly lower; BMD-F (SAMP6 mice; [10]): significantly higher; BMD-LS (SAMP6 mice; [10]): significantly higher; ERE (estrogen receptor; 10^-8M): 9.0 fold induction; ERE (estrogen receptor; 10^-9M): 15.8 fold induction; ERE (estrogen receptor; 10^-10M): 20.2 fold induction; ALP activity (mean ± SEM) ([3]; 10^-8M): 2.6 ± 0.129^a fold induction; ALP activity (mean ± SEM) ([3]; 10^-9M): 2.5 ± 0.184^a fold induction; ERE/BRE ([4]; 10^-8M): 8.6; ERE/BRE ([4]; 10^-10M): 19.4; BRE (BMP receptor; 10^-8M): 1.0 fold induction; BRE (BMP receptor; 10^-9M): 1.6 fold induction; BRE (BMP receptor; 10^-10M): 1.0 fold induction
